“Also recorded” adds a separate entry of the source. Where a SMILES comes first, the peptide text is derived from it. [ ]: non-standard residue; d: D form. αMeP = C[C@@]1(C(=O)O)CCCN1
Columns and labels:
Naïve C57BL6 mice = assay: Elevated Plus Maze test; assay type: in vivo, mouse; details: FIGS. 11A-11B
[1] = tested on: MeCP2 knockdown Xenopus laevis tadpoles; assay: Seizure Score in MeCP2 knockdown tadpoles; assay type: in vivo; details: MeCP2 knockdown tadpoles treated Day 1 to Day 6, relative to vehicle
Description: Seizure Score data for wild-type and MeCP2 knockdown was collected for Xenopus laevis tadpoles treated with drug (trofinetide or vorinostat) or vehicle from Day 1 to Day 6, after which they were placed back in medium.

[2] = tested on: MeCP2-knockdown (MeCP2−/Y) mice; assay: MeCP2 knockdown mouse study, daily i.p. treatment from p31; assay type: in vivo; details: vorinostat 50 mg/kg i.p. daily, relative to vehicle-treated MeCP2-knockdown mice
Procedure: Wild-type and MeCP2-knockdown (MeCP2^−/Y) mice (a Rett mouse model) were treated starting at day 31 post-partum (p31) via daily intraperitoneal (i.p.) administration of trofinetide (100 mg/kg) or vorinostat (50 mg/kg) until day 51 of age (FIG. 7A). Behavorial assays were performed at days 35-39 and days 49-53, before sacrificing the mice and harvesting organs at day 54.

[3] = tested on: MeCP2-knockdown (MeCP2-/Y) mice; assay: MeCP2 knockdown mouse study, treatment after onset of symptoms (oral vorinostat); assay type: in vivo; details: for survival after 3 weeks of treatment: MeCP2-knockdown animals; for colocalization of acetylated a-tubulin with neuronal staining in the colon: bIII- and acetylated alpha-tubulin staining; for colon vacuolization and neutrophil infiltrate (histology): colon sections of MeCP2-knockdown animals; for overall mobility scores (mobility, gait, hindlimb clasping) / diarrhea scores: relative to vehicle-treated MeCP2-knockdown animals; for overall mobility scores (mobility, gait, hindlimb clasping): FIG. 9B; for diarrhea scores: FIG. 9C
Procedure: Mice were treated with either trofinetide or vorinostat, and change in animal weight (g) and Cumulative Severity Score were assessed.
MeCP2-knockdown (MeCP2-/Y) mice were dosed approximately one week after the onset of symptoms with an oral formulation of vorinostat.
Additionally, the overall mobility scores (based on mobility, gait, and hindlimb clasping) and the diarrhea scores were improved for MeCP2-knockdown animals treated with vorinostat and trofinetide, relative to vehicle-treated MeCP2-knockdown animals (FIG. 9B and 9C, respectively). […] There was also an overall increase of hyperacetylated a-tubulin in bronchioles of MeCP2-Vy animals that vorinostat restored (FIG. 9E). Finally, vorinostat treatment rescued the disrupted a-tubulin acetylation observed in femoral muscle sections (FIG. 9F).
Initial histological analysis of the colon indicated a greater degree of vacuolization and heightened neutrophil infiltrate in MeCP2-knockdown animals, which vorinostat and trofinetide reversed. […] Vorinostat also normalized the ratio of acetylated alpha-tubulin to bIII-tubulin (FIG. 9G).

[4] = tested on: MeCP2 knockdown Xenopus laevis tadpoles; assay: alpha-tubulin acetylation and cilia in tissues of MeCP2 knockdown tadpoles; assay type: in vivo
Procedure: Xenopus laevis tadpoles having an MeCP2 knockdown were generated using CRISPR-Cas9 technology. Xenopus embryos were fertilized and maintained at 14° C. until the 4-cell stage. Each cell was injected with ˜2 nL ribonucleoprotein (a mixture of sgRNAs targeting the MeCP2 gene and Cas9 enzyme). No adverse effects to development were observed, as all embryos developed to the swimming tadpole stages (Nieuwkoop-Faber stages 45-50) with no apparent loss of viability or morphological defect.
Specifically, tadpole tissues were assessed for alpha-tubulin acetylation and bidirectional shifts in acetylation patterns were observed depending on the tissue type.

[5] = tested on: MeCP2 knockdown Xenopus laevis; assay: Tongue thickness and GI tract ib4+ staining in MeCP2 knockdown tadpoles; assay type: in vivo
Description: Treatment with vorinostat in Xenopus laevis also had impacts on GI tract inflammation and nociceptive innervation. The role of MeCP2 knockdown in GI tract inflammation and nociceptive innervation by staining for isolectin B4-positive (ib4+) cells.

[6] = tested on: MeCP2 knockdown Xenopus laevis tadpoles; assay: Tadpole viability in the MeCP2 knockdown model; assay type: in vivo; details: for tadpole viability: MeCP2 knockdown model, FIGS. 6A-6B; for animals survived until Day 10: MeCP2 knockdown tadpoles, no vehicle-treated animal survived beyond Day 6
Description: 100% of MeCP2 knockdown animals treated with vorinostat survived until Day 10; over 50% of MeCP2 knockdown animals treated with trofinetide survived until Day 10. Conversely, none of the MeCP2 knockdown animals treated with vehicle survived beyond Day 6.

O=C(CCCCCCC(=O)Nc1ccccc1)NO [vorinostat, N′-hydroxy-N-phenyloctanediamide]
behavior in anxiety, activity and novelty seeking (Naïve C57BL6 mice): restored behavior in anxiety, activity and novelty seeking; also recorded: restores naïve C57BL6 behavior | seizures (Seizure Score) [1]: reduced seizures | neurological function (elevated plus maze and spatial novelty Y-maze performance) ([2]; FIG. 7D): improved neurological function | diarrhea score ([2]; FIG. 7E): improved diarrhea score | hyperacetylated a-tubulin in bronchioles ([3]; FIG. 9E): restored | a-tubulin acetylation in femoral muscle sections ([3]; FIG. 9F): rescued | survival after 3 weeks of treatment [3]: 100% | colocalization of acetylated a-tubulin with neuronal staining in the colon [3]: normalized | colon vacuolization and neutrophil infiltrate (histology) [3]: reversed | ratio of acetylated alpha-tubulin to bIII-tubulin ([3]; colon, FIG. 9G): normalized | breathing (score) ([3]; compared to trofinetide and vehicle treatments, FIG. 9D): significantly improved | performance in EPM and Y mazes ([3]; oral vorinostat 50 mg/kg): increased performance | weight gain ([3]; oral vorinostat 50 mg/kg): ameliorated weight gain | Cumulative Severity Score / symptom severity score ([3]; oral vorinostat 50 mg/kg, mice treated at 35 days of age after onset of severe symptoms, FIG. 9A): more effective than trofinetide; also recorded: prevented significant worsening | overall mobility scores (mobility, gait, hindlimb clasping) [3]: improved | diarrhea scores [3]: improved | a-tubulin hyperacetylation in the GI tract ([4]; FIG. 2C): reversed that hyperacetylation | hyper-acetylation in olfactory multi-ciliated cells ([4]; microtubules and alpha-tubulin): reverses hyper-acetylation | effects related to microtubules and cilia length ([4]; nostril multiciliated cells, FIGS. 2A-2B): reversed those effects | tongue thickness ([5]; MeCP2 knockdown animals, FIG. 3A): restored normal tongue thickness; also recorded: restores normal tongue vertical thickness | ib4+ expression in the GI tract ([5]; MeCP2 knockdown tadpoles, isolectin B4 staining, FIG. 3B): reversed that ib4+ expression; also recorded: restores normal ib4+ expression | tadpole viability [6]: improves Xenopus laevis tadpole viability | tadpole viability ([6]; listed as Vorinostat): improve Xenopus laevis tadpole viability | animals survived until Day 10 [6]: 100%

C[C@@]1(C(=O)N[C@@H](CCC(=O)O)C(=O)O)CCCN1C(=O)CN [trofinetide, (2S)-2-[[(2S)-1-(2-aminoacetyl)-2-methylpyrrolidine-2-carbonyl]amino]pentanedioic acid] (H-Gly-[αMeP]-Glu-OH)
seizures (Seizure Score) [1]: reduced seizures | survival after 3 weeks of treatment [3]: about 60% | colocalization of acetylated a-tubulin with neuronal staining in the colon [3]: normalized | colon vacuolization and neutrophil infiltrate (histology) [3]: reversed | overall mobility scores (mobility, gait, hindlimb clasping) [3]: improved | diarrhea scores [3]: improved | animals survived until Day 10 [6]: over 50%

Source: patent US20240423933A1, “DRUGS FOR TREATING NEURODEVELOPMENTAL DISORDERS” (President and Fellows of Harvard College, priority 2021, published 2024)
